Measurements from ChEMBL document CHEMBL1201862, “PubChem BioAssay data set” (2004).
Active and inactive are the calls of the source.

Tests used:
[1] = target: T1, Short transient receptor potential channel 4 (Mus musculus, UniProt Q9QUQ5); test: TRPC4 inhibition under acetylcholine activation, SAR follow-up, cell-based, acetylcholine stimulus, HEK293 TRPC4, Fluo-4 (AID 492996); format: functional
T1 sequence (Q9QUQ5 whole entry): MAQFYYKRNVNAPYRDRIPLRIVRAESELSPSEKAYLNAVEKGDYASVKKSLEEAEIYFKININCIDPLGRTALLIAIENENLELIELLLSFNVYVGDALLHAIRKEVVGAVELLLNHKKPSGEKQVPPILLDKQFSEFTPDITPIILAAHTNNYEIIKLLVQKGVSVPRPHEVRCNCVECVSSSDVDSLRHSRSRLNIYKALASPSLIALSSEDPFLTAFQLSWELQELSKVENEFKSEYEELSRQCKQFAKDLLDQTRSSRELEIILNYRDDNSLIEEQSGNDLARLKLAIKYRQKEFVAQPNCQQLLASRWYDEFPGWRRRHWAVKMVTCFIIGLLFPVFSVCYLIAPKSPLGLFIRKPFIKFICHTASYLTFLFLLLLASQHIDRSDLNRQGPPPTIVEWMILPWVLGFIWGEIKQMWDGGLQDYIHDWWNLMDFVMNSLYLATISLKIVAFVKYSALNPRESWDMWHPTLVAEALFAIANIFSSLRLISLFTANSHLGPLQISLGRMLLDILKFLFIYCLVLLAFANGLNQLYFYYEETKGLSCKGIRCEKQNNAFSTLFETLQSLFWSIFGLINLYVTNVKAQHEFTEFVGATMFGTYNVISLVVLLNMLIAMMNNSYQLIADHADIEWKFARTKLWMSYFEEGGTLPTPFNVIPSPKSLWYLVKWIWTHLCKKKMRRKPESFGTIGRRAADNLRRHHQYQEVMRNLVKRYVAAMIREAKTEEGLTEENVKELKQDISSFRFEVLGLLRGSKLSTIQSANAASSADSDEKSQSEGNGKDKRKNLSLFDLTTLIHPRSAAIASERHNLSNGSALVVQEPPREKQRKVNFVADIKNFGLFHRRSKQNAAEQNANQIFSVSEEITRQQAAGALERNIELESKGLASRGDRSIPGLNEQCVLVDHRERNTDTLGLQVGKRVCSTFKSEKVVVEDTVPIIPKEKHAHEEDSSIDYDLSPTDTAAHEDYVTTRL

[2] = NIH-3T3 fibroblast cytotoxicity, dose response, cytotoxicity control, cell-based, fluorescence, Alamar Blue, secondary assay (AID 2327); format: functional;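 also: NIH-3T3 mouse fibroblasts cultured with fluconazole at 8 µg/mL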
[3] = insulin promoter down-regulators in MIN6 cells, imaging, high-content screening, mouse beta cells (AID 1628); format: functional
[4] = cytotoxicity in MIN6 insulinoma cells, dose response, cytotoxicity control, cell-based, mouse insulinoma (AID 2122); format: functional;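 also: confirmatory high-throughput counterscreen run to flag cytotoxic compounds; mouse MIN-6 beta cells carrying an insulin promoter eGFP reporter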
[5] = C. albicans growth with fluconazole, confirmation, fluorescence, retest (AID 2467); format: functional, cell-based
[6] = target: T2, Microphthalmia-associated transcription factor (Homo sapiens, UniProt O75030); test: TRPM1 promoter luciferase signal decrease, dose response, MITF inhibitor project, cell-based, SK-MEL-5, cherry-picked, set 3 (AID 493073); format: functional
T2 sequence (O75030 whole entry): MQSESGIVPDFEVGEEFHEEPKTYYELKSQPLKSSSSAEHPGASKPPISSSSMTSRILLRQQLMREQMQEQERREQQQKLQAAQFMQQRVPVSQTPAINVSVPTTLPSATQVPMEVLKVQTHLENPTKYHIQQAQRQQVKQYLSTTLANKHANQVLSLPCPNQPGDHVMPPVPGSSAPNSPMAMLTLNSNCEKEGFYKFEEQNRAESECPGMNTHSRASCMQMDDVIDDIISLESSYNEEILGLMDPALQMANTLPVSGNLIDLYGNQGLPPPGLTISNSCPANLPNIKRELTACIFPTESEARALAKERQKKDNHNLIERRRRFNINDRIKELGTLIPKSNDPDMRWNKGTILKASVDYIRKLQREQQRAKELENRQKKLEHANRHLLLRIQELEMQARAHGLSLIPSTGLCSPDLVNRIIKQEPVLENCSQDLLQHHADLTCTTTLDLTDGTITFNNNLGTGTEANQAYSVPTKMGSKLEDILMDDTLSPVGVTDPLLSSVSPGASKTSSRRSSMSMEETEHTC

A-375 [7] = test: MITF: Counter assay: A375 proliferation Measured in Cell-Based System Using Plate Reader - 2084-03_Inhibitor_Dose_DryPowder_Activity. [Related pubchem assays (depositor defined):AID488944]; format: functional; conditions: Homo sapiens
INS1 = test: beta cell apoptosis inhibitors, cytokine rescue, dose response, luminescence, retest (AID 449756); format: functional, cell-based; conditions: Rattus norvegicus;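 also: cell death triggered by IL-1 beta plus TNF-alpha plus IFN-gamma mixture; protective hits raise ATP signal compared with cytokine alone wells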
MDCK [8] = test: antiviral activity against H1N1 influenza, dose response, cell-based, strain KY180 (AID 540254); format: functional; conditions: Canis lupus familiaris
Vero = test: Vero E6 cell cytotoxicity, dose response, cytotoxicity control (AID 540298); format: functional; conditions: Chlorocebus sabaeus
MDCK [9] = test: MDCK cell cytotoxicity, dose response, cytotoxicity control (AID 540296); format: functional; conditions: Canis lupus familiaris
MDCK [10] = test: antiviral activity against H1N1 influenza, dose response, cell-based, strain KY136 (AID 540257); format: functional; conditions: Canis lupus familiaris
[11] = target: T3, Replicative DNA helicase DnaB (Mycobacterium tuberculosis, UniProt P9WMR3); test: DnaB intein splicing inhibitors, dose response, biochemical, cell-free fluorescence (AID 449749); format: functional
T3 sequence (P9WMR3 whole entry): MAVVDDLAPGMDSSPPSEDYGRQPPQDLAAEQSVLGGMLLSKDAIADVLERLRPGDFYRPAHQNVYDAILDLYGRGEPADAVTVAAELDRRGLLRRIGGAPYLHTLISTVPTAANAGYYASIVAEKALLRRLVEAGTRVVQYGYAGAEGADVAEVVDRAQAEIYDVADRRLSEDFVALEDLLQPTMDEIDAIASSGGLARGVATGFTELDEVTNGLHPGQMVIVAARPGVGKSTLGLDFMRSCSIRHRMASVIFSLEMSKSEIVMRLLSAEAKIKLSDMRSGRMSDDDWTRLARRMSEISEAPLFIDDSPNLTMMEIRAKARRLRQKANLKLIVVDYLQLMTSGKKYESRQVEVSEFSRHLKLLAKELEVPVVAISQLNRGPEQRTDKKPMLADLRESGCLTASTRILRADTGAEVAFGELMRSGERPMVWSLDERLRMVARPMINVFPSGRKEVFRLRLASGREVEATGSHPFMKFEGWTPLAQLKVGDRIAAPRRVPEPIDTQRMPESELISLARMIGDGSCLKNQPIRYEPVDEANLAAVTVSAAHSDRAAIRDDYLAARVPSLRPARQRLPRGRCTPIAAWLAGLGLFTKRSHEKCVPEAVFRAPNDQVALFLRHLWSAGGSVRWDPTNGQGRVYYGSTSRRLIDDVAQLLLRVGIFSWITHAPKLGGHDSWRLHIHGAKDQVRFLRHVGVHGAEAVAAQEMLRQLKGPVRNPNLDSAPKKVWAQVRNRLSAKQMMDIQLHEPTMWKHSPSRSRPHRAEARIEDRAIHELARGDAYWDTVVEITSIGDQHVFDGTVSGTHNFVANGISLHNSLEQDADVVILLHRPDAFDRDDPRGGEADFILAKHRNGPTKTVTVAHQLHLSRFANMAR

Keap1/Nrf2 = Keap1/Nrf2 (Homo sapiens, UniProt Q14145); test: Keap1-Nrf2 protein-protein interaction inhibitors, dose response, biochemical, fluorescence polarization, cherry-picked samples (AID 588683)
Keap1/Nrf2, sequence (Q16236 whole entry): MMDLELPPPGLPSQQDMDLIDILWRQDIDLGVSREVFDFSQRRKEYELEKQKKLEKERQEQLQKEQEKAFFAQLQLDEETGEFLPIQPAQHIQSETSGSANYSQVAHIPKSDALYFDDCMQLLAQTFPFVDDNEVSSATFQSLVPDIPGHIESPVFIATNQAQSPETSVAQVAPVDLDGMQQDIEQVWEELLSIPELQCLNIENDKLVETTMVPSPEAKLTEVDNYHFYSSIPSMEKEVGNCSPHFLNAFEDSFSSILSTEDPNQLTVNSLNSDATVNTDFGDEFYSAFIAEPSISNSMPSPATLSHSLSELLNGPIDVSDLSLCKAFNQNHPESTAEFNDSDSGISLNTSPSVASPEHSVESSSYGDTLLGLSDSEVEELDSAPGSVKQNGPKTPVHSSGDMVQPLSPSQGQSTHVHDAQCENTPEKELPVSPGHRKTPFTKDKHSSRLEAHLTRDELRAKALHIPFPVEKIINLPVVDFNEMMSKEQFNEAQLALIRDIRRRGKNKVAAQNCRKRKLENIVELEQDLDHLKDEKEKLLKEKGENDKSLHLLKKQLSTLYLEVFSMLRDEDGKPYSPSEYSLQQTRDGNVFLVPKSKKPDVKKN
Keap1/Nrf2, sequence (Q14145 whole entry): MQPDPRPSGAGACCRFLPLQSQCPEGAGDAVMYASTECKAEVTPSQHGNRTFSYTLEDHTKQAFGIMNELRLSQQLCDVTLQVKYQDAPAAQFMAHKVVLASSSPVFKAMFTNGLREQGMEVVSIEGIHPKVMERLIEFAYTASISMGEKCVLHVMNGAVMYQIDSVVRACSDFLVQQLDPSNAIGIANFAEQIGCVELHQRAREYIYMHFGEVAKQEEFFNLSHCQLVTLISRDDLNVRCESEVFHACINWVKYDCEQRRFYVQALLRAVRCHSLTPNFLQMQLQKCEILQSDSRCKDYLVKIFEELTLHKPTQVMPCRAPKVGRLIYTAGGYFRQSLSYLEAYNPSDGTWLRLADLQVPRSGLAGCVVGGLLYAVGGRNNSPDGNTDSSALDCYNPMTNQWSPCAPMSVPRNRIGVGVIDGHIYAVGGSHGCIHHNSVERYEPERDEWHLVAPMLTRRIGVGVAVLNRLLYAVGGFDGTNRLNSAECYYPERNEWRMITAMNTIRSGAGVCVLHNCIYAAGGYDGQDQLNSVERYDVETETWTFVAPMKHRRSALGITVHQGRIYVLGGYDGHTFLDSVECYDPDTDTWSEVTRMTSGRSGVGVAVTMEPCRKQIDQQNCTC

Protein RecA = target: T4, Protein RecA (Mycobacterium tuberculosis, UniProt P9WHJ3); test: Fluorescence Cell-Free Homogeneous Dose Retest to Identify Inhibitors of RecA-Intein Splicing Activity. [Related pubchem assays (depositor defined):AID2097, AID2223, AID489010, AID492950]; format: functional
T4 sequence (P9WHJ3 whole entry): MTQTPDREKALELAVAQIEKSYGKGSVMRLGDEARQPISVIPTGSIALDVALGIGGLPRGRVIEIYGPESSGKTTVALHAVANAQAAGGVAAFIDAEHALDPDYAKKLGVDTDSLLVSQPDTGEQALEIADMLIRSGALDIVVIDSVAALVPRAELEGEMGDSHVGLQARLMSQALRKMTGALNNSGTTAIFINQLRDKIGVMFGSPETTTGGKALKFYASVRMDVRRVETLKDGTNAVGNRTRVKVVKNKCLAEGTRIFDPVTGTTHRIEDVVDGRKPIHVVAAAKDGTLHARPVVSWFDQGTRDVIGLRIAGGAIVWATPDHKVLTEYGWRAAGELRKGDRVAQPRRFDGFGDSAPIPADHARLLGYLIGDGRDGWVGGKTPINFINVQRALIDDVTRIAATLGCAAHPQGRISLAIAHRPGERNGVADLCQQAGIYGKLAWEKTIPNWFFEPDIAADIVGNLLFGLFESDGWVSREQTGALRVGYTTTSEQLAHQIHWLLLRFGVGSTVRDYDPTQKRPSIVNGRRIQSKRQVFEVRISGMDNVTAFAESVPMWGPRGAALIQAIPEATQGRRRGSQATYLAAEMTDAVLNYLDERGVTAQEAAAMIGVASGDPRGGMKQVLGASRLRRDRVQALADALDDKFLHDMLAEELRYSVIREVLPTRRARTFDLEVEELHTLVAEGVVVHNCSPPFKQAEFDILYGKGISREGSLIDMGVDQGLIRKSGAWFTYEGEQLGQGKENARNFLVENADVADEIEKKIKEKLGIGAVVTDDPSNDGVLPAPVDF

[12] = growth suppression of PTEN-null colon cells, dose response, cell-based, HCT116 PTEN knockout (AID 1047); format: functional;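 also: HCT116 colon tumor cells with PTEN knocked out; cells exposed to compound for 60 hours before readout; potency for loss of cell viability measured by luminescence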
[13] = growth suppression of beta-catenin-knockout colon cells, dose response, cell-based, HCT116, human colon tumor (AID 1045); format: functional;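 also: HCT116 colon tumor cells with beta catenin knocked out; cells exposed to compound for 60 hours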
A-375 [14] = test: A375 melanoma cell viability reduction, dose response, counter-screen for MITF modulator project, cherry-pick samples, set 2 (AID 540335); format: functional, cell-based; conditions: Homo sapiens
Paired box protein Pax-8 = Paired box protein Pax-8 (Homo sapiens, UniProt Q06710); test: inhibitors of PAX8-driven TPO luciferase reporter, dose response, RMG-I cells, cherry-pick (AID 687027); format: functional, cell-based;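 also: luciferase reporter driven by Pax8 target thyroperoxidase promoter measured by SteadyGlo luminescence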
Paired box protein Pax-8, sequence (Q06710 whole entry): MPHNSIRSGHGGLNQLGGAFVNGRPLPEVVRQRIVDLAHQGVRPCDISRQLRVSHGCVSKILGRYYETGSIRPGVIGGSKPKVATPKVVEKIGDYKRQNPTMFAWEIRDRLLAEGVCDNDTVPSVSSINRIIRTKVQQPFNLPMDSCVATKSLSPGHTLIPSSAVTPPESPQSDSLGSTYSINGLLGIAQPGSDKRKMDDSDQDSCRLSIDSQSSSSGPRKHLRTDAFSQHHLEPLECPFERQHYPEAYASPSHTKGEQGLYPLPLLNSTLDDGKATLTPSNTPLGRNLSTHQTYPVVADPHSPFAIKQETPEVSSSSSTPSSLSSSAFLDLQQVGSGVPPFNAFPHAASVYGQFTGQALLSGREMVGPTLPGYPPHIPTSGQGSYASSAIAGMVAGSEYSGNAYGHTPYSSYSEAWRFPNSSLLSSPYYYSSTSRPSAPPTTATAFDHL

[15] = PAX2 cell-based inhibition, dose response, selectivity assay for PAX8 inhibitor project, plate reader, dry powder samples (AID 743048); format: functional;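 also: HEK293 cells carrying a WT1 promoter luciferase reporter driven by expressed Pax2; potency is for inhibition of Pax2 driven reporter signal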
[16] = cytotoxicity in COV362 ovarian cancer cells, dose response, cytotoxicity control for PAX8 inhibitor project, cell-based, plate reader, dry powder, SA12 (AID 743144); format: functional
[17] = IOSE-T80 ovarian epithelial cell cytotoxicity, dose response, cytotoxicity control for PAX8 inhibitor project, plate reader, dry powder samples (AID 743045); format: functional, cell-based
[18] = A2780 ovarian cancer cell cytotoxicity, dose response, cytotoxicity control, plate reader, dry powder samples (AID 743046); format: functional, cell-based
[19] = NIH:OVCAR-3 ovarian cancer cell cytotoxicity, dose response, PAX8 inhibitor project, plate reader, dry powder samples (AID 743044); format: functional, cell-based
[20] = PAX5 activity inhibitors, dose response, selectivity assay for PAX8 inhibitor project, cell-based, plate reader, dry powder samples (AID 743047); format: functional;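 also: HEK293 cells carrying a Pax5 driven CD19 promoter luciferase reporter; potency of inhibitors that lower reporter luminescence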
[21] = IGROV1 ovarian cancer cell cytotoxicity, dose response, PAX8 inhibitor project, plate reader, dry powder samples (AID 743043); format: functional, cell-based; conditions: IGROV-1
[22] = cytotoxicity in OVCAR4 cells, dose response, cytotoxicity control for PAX8 inhibitor project, cell-based, plate reader, dry powder, SA11 (AID 743150); format: functional; conditions: OVCAR-4
[23] = cytotoxicity in COV434 cells, dose response, cytotoxicity control for PAX8 inhibitor project, cell-based, plate reader, dry powder, SA7 (AID 743145); format: functional
[24] = cytotoxicity in OV-90 ovarian cancer cells, dose response, PAX8 inhibitor project, cell-based, plate reader, dry powder, SA8 (AID 743149); format: functional
[25] = cytotoxicity dependent on PAX8, dose response, cell-based, plate reader, dry powder (AID 743049); format: functional
Jurkat = test: antigen receptor-induced NF-kB inhibitors, dose response, Jurkat, luciferase reporter, luminescence, B- and T-cell (AID 489004); format: functional, cell-based; conditions: Homo sapiens;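 also: NF-kB luciferase reporter Jurkat cells stimulated with PMA plus ionomycin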
[26] = cytotoxicity in HEK-293T NF-kB-Luc cells, dose response, cytotoxicity control for B/T-cell NF-kB inhibitor project, cell-based, uHTS hits (AID 489019); format: functional;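 also: IC50 reflects cytotoxicity as loss of cell viability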
[27] = Shn3 3'UTR reporter inhibitors, dose response, cell-based, Clone20 osteoblasts, firefly luciferase, cherry-picked (AID 624132); format: functional;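 also: firefly luciferase luminescence from reporter carrying the Shn3 3'UTR in osteoblasts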
[28] = HepG2 cell cytotoxicity, dose response, cytotoxicity control for Shn3 inhibitor project, CellTiter-Glo, cherry-picked (AID 624134); format: functional, cell-based
[29] = control 3'UTR Renilla luciferase suppression, dose response, counter-screen for Shn3 inhibitor project, cell-based, Clone20-Shn3RL, cherry-picked (AID 624133); format: functional
[30] = target: Photoreceptor-specific nuclear receptor (Homo sapiens, UniProt Q9Y5X4); format: functional, cell-based;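 also: CHO-S cells with Gal4-NCOR and VP16-NR2E3 two-hybrid luciferase reporter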
Photoreceptor-specific nuclear receptor, sequence (Q9Y5X4 whole entry, the tested form may be a part): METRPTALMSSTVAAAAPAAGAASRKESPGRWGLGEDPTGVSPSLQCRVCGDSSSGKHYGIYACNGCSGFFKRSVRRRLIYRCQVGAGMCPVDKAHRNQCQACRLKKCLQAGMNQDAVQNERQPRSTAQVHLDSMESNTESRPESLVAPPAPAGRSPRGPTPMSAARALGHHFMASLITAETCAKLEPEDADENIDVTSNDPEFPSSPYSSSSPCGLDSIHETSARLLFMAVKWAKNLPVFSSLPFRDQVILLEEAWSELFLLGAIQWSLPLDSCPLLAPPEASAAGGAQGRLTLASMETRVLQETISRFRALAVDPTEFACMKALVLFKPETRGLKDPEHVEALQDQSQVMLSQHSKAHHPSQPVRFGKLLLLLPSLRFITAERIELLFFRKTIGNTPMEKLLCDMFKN

Cc1cc(N2CCN(C)CC2)nc2ccccc12
active: IC50 [1] 31.7 µM

COc1ccc(-c2c[n+](CC(=O)OC3CC(C)CCC3C(C)C)c3n2CCC3)cc1 (stereo not drawn)
inactive: EC50 [2] > 150 µM
active: IC50 [3] < 0.25 µM | IC50 [4] < 0.25 µM | EC50 [5] 0.894 µM | AC50 [6] 4.87 µM | AC50 (A-375 [7]) 35 µM | AC50 (INS1) 1.78 µM

Cc1nnc(NC(=O)CSc2nccn2-c2cccc(C)c2C)s1
active: IC50 (MDCK [8]) 10.4 µM | CC50 (Vero) > 40 µM | CC50 (MDCK [9]) > 40 µM | IC50 (MDCK [10]) 5.1 µM

Cc1ccc(S(=O)(=O)Nc2ccc(O)c3ccccc23)c(C)c1
inactive: AC50 (Keap1/Nrf2) > 52 µM
active: AC50 [11] 0.132 µM | EC50 (Protein RecA) 0.0702 µM | AC50 (INS1) 5.61 µM

COc1ccc(Br)cc1/C=C/C(=O)c1ccc(NC(C)=O)cc1
active: EC50 [12] 1.12 µM | EC50 [13] 1.04 µM | AC50 [6] 4.64 µM | AC50 (A-375 [14]) 33.2 µM | AC50 (Paired box protein Pax-8) 3.8 µM | AC50 [15] 7.73 µM | AC50 [16] 8.41 µM | AC50 [17] 9.22 µM | AC50 [18] 17.6 µM | AC50 [19] 8.78 µM | AC50 [20] 7.08 µM | AC50 [21] 15 µM | AC50 [22] 13.7 µM | AC50 [23] 13.6 µM | AC50 [24] 17.9 µM | AC50 [25] 11.7 µM

Cc1cc2sc3ccc(C#CC4(O)CCCCC4)cc3c(=O)c2cc1C
inactive: IC50 [26] > 80 µM
active: IC50 (Jurkat) < 0.16 µM | AC50 [27] < 0.26 µM | AC50 [28] 42 µM | AC50 [29] 25 µM | IC50 [30] 0.0182 µM
